What was measured:
293T cell = assay: Inhibition of 293T cell proliferation (CTG, intracellular ATP); assay type: cell-based; conditions: Homo sapiens, HEK-293T, 72 h, compared to DMSO group, read-out: Inhibitory activity against 293T cell proliferation (IC50)
Experimental: (§1) Jurkat or 293T cells were seeded into a 96-well plate at 3000 cells/well. After overnight adherence culture, the serially diluted compound in DMSO was added. After 72 h, the intracellular ATP level was determined by CTG. The IC50 for the inhibition of cell proliferation by the compounds was calculated compared to the DMSO group. Table 8. Inhibitory activity of compounds of the present disclosure against Jurkat/293T cell proliferation (IC50, µM)

[1] = Pharmacokinetic experiment in mice; assay type: in vivo, CD-1 female mice; conditions: female, CD-1, mouse, plasma; for Vd: read-out: Vdss
Experimental: CD-1 female mice aged 7 to 10 weeks were intravenously administered and orally administered at doses of 1 mg/kg and 10 mg/kg, respectively. The mice were fasted for at least 12 h before the administration and given food 4 h after the administration, and they were given ad libitum access to water during the experiment.
On the day of the experiment, animals in the intravenous group were given the corresponding compound by single injection via the tail vein at an administration volume of 10 mL/kg; and animals in the oral group were given the corresponding compound by single intragastric injection at an administration volume of 10 mL/kg. The animals were weighed before administration, and the administration volume was calculated according to the body weight. The sample collection time points were 0.083 h, 0.167 h, 0.5 h, 1 h, 2 h, 4 h, 8 h, and 24 h. About 200 µL of whole blood was collected through the orbital venous plexus at each time point and used to prepare plasma for concentration determination by high-performance liquid chromatography-tandem mass spectrometry (LC-MS/MS). The plasma concentrations were processed using a non-compartmental model of Winnolin pharmacokinetic software, and the pharmacokinetic parameters were calculated using a linear-log trapezoidal method. Table 13. Results of in vivo pharmacokinetic evaluation of compounds of the present disclosure

[2] = system: Mouse colon cancer CT-26 cells; assay: In vivo efficacy in CT-26 model; parameters: species or system BALB/c mice; conditions: small molecules 15mg/kg PO QD, PD-1 1mg/kg IV QW, BDO 2mg/kg IP QW, 21 days
Experimental: (§2) Female BALB/c mice (aged 6 weeks, 18-22 g) were provided by Vital River Laboratory Animal Technology Co., Ltd. (China) and used one week after quarantine and acclimation. All animals were kept in a room at 23±2 °C with a relative humidity of 50±5%, artificial lighting was provided from 08:00 to 20:00 every day, and the air was exchanged 13-18 times per hour. Mouse colon cancer CT-26 cells were cultured conventionally in 1640 medium containing 10% fetal bovine serum in an incubator at 37 °C with 5% CO2. After being subcultured, the cells were collected when they reached the desired amount. The BALB/c mice were subcutaneously injected with 2 × 10^5 CT-26 cells on the right side to form tumors. After the tumors grew to about 100 mm^3, the animals were randomly grouped for administration. Tumor volumes were measured with a caliper on day 3, day 7, day 10, day 14, day 17, and day 21 after the administration. […] The toxicity of the compounds was evaluated according to the body weight and state of the mice.
Table 16. In vivo efficacy of some of the compounds of the present disclosure in CT-26 model

HeLa cells = assay: Intracellular acetyl lysine / H3K 27 acetyl lysine level by ELISA; assay type: cell-based; conditions: 24 h of treatment
Experimental: HeLa cells were seeded into a 96-well plate at 20000 cells/well. After overnight adherence culture, the serially diluted compound was added. After 24 h of treatment, intracellular levels of acetyl lysine and H3K 27 acetyl lysine were quantified by ELISA. Table 9. Effect of compound of the present disclosure on levels of acetyl lysine and H3K 27 acetyl lysine

[3] = system: Mouse colon cancer MC38 cells; assay: In vivo efficacy in MC-38 model; parameters: species or system C57BL6N mice; conditions: small molecules 15mg/kg PO QD, PD-1 1mg/kg IV QW, BDO 2mg/kg IP QW, 21 days
Experimental: as §2, with “C57BL6N” for “BALB/c”, “MC38” for “CT-26”, “10^6 MC38” for “10^5 CT-26”
Table 15. In vivo efficacy of some of the compounds of the present disclosure in MC-38 model

Jurkat cell = assay: Inhibition of Jurkat cell proliferation (CTG, intracellular ATP); assay type: cell-based; conditions: Homo sapiens, 72 h, compared to DMSO group, read-out: Inhibitory activity against Jurkat cell proliferation (IC50)
Experimental: as §1

OVCAR 3 cells = assay: NK cell-mediated tumor cell killing (NK92 cells, GFP count); assay type: cell-based; conditions: Homo sapiens, 72 h compound, 1-4 h co-culture, compared to DMSO group, read-out: EC50 in promoting the NK92 cell-mediated OVCAR 3 cell death
Experimental: OVCAR 3 cells […] expressing GFP were seeded into a 96-well plate at 4000 cells/well. After overnight adherence culture, the serially diluted compounds were added, and the plate was incubated for another 72 h. After the two types of cells were mixed and cultured for another 1-4 h, NK92 cells were removed by washing with PBS, and adherent GFP-positive tumor cells were counted. The EC50 of the compounds in promoting the NK92 cell-mediated OVCAR 3 cell death was calculated compared to the DMSO group. Table 11. NK cell-mediated tumor cell killing by compounds of the present disclosure

[4] = Stability in liver microsomes; assay type: in vitro ADME; conditions: 1 µM compound, NADPH, 37 °C
Experimental: After the 1 µM compound was incubated with 0.5 mg/mL of human or mouse liver microsomes and an NADPH regeneration system at 37 °C for different times, respectively, LC-MS-MS was used to analyze the remaining amount of the compound and calculate T1/2. Table 12. Evaluation results of stability of compounds of the present disclosure in human and mouse liver microsomes

[5] = Injection (1 mg/kg), intravenous
[6] = Human liver microsomes 0.5 mg/mL
[7] = Mouse liver microsomes 0.5 mg/mL

Row | SMILES | IC50 (293T cell) [µM] | AUC(0-t) [1, 5] [ng·h/mL] | clearance [1, 5] [mL/min/kg] | half-life [1, 5] [h] | Vd [1, 5] [L/kg] | AUC(0-t) ([1]; Oral administration (10 mg/kg)) [ng·h/mL] | Cmax ([1]; Oral administration (10 mg/kg)) [ng/mL] | Tmax ([1]; Oral administration (10 mg/kg)) [h] | bioavailability ([1]; Oral administration (10 mg/kg)) [%] | half-life ([1]; Oral administration (10 mg/kg)) [h] | Acetyl lysine Maximum (%) (HeLa cells) | Acetyl lysine Minimum effective concentration (HeLa cells) [nM] | H3K 27 Acetyl lysine Maximum (%) (HeLa cells) | IC50 (Jurkat cell) [µM] | CLint scaled at 1 µM [4, 6] [mL/min/kg] | Clliver [4, 6] [mL/min/kg] | half-life at 1 µM [4, 6] [h] | CLint scaled at 1 µM [4, 7] [mL/min/kg] | Clliver [4, 7] [mL/min/kg] | half-life at 1 µM [4, 7] [h] | further results
1 | [2H]c1cc(NC(=O)c2ccc(CNC(=O)/C=C/c3cccnc3)cc2)c(N)cc1F [Compound 1, (E)-N-(2-amino-4-fluorophenyl-5-d)-4-((3-(pyridin-3-yl)acrylamido)methyl)benzamide] | > 10 | 401 | 41.5 | 2.41 | 2.19 | 1890 | 3450 | 0.08 | 45.3 | 2.76 | 430 | 16 | 360 | 0.86 | – | – | – | – | – | – | Change in body weight [2]: +17.6%; TGI(%) ([2]; 6 mice per group): 35.7%; H3K 27 Acetyl lysine Minimum effective concentration (HeLa cells): 80 nM; Change in body weight [3]: +17.6%; TGI(%) ([3]; 6 mice per group): 35.7%; EC50 (OVCAR 3 cells): 0.0439 µM
2 | [2H]c1ncccc1/C=C/C(=O)NCc1ccc(C(=O)Nc2ccc(F)cc2N)cc1 [Compound 9] | 5.18 | 1000 | 16.6 | 1.48 | 0.44 | 1050 | 1640 | 0.17 | 10.5 | 1.21 | – | – | – | 1.08 | 4.59 | 3.75 | 6.32 | 118 | 50.99 | 0.773 | –
3 | [2H]/C(=C\C(=O)NCc1ccc(C(=O)Nc2ccc(F)cc2N)cc1)c1cccnc1 [Compound 8] | 4.01 | 903 | 36.9 | 1.01 | 1.21 | 1430 | 824 | 0.08 | 29.6 | 1.87 | – | – | – | 1.58 | 18.4 | 9.73 | 1.58 | 285 | 68.41 | 0.319 | –
4 | [2H]c1cc(CNC(=O)/C=C/c2cccnc2)ccc1C(=O)Nc1ccc(F)cc1N [Compound 4] | 3.26 | 602 | 27.7 | 3.05 | 1.32 | 1710 | 1740 | 0.08 | 28.5 | 3.9 | – | – | – | 1.7 | 19.5 | 10.03 | 1.49 | 244 | 65.74 | 0.373 | –
5 | [2H]c1cncc(/C=C/C(=O)NCc2ccc(C(=O)Nc3ccc(F)cc3N)cc2)c1 [Compound 11] | 5.16 | 733 | 22.7 | 1.79 | 0.62 | 1330 | 2370 | 0.08 | 18.2 | 1.19 | 450 | 80 | 460 | 0.95 | 23.7 | 11.04 | 1.22 | 231 | 64.76 | 0.394 | H3K 27 Acetyl lysine Minimum effective concentration (HeLa cells): 80 nM
6 | [2H]c1ccc(/C=C/C(=O)NCc2ccc(C(=O)Nc3ccc(F)cc3N)cc2)cn1 [Compound 12] | 5.31 | 514 | 32.4 | 1.17 | 0.71 | 1610 | 2080 | 0.17 | 30.5 | 1.93 | – | – | – | 1.59 | 2.87 | 2.52 | 10.1 | 108 | 49.05 | 0.844 | –
7 | [2H]c1cc(F)cc(N)c1NC(=O)c1ccc(CNC(=O)/C=C/c2cccnc2)cc1 [Compound 3] | 7.5 | 592 | 28.1 | 2.78 | 0.93 | 1770 | 2350 | 0.08 | 26.3 | 2.21 | – | – | – | 1.86 | – | – | – | – | – | – | –
8 | [2H]c1c(F)ccc(NC(=O)c2ccc(CNC(=O)/C=C/c3cccnc3)cc2)c1N [Compound 2] | > 10 | 441 | 37.8 | 2.3 | 1.61 | 2160 | 2360 | 0.08 | 46.5 | 1.85 | 420 | 16 | 360 | 1.68 | – | – | – | – | – | – | H3K 27 Acetyl lysine Minimum effective concentration (HeLa cells): 80 nM

Source: EP4631931A1, “HDAC INHIBITOR AND USE THEREOF” (Wigen Biomedicine Technology (Shanghai) Co., Ltd., priority 2022, dated 2024)
